Source: the supplement of paper PMC10307832

Tests used:
Assay in all cases: relative viability (nuclei count vs DMSO), 5 days (fraction); higher = more cells survive
NCI-H2405 = test system: NCI-H2405
Method in brief: (§1)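 For relative viability, nuclei counts in treated wells were divided by those in vehicle wells. Lung cancer cell lines had been pin-tool dosed in 1536-well plates the day after seeding and cultured for 5 days, then fixed and stained in one step (final 0.05% Triton X-100, 1% formaldehyde, 1 ug/ml Hoechst) and imaged at 4×. Doses were one drug alone or a fixed anchor-drug dose plus five library-drug doses (not always all listed) in √10 steps, and values are duplicate-plate medians.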

LXF-289 = test system: LXF-289
Method in brief: as §1

NCI-H1650 = test system: NCI-H1650
Method in brief: as §1

CAL-12T = test system: CAL-12T
Method in brief: as §1

SK-LU-1 = test system: SK-LU-1
Method in brief: as §1

NCI-H647 = test system: NCI-H647
Method in brief: as §1

NCI-H322M = test system: NCI-H322M
Method in brief: as §1

NCI-H2228 = test system: NCI-H2228
Method in brief: as §1

NCI-H1437 = test system: NCI-H1437
Method in brief: as §1

NCI-H1944 = test system: NCI-H1944
Method in brief: as §1

NCI-H1792 = test system: NCI-H1792
Method in brief: as §1

LCLC-103H = test system: LCLC-103H
Method in brief: as §1

BEN = test system: BEN
Method in brief: as §1

HCC-827 = test system: HCC-827
Method in brief: as §1

LCLC-97TM1 = test system: LCLC-97TM1
Method in brief: as §1

RERF-LC-KJ = test system: RERF-LC-KJ
Method in brief: as §1

201T = test system: 201T
Method in brief: as §1

NCI-H727 = test system: NCI-H727
Method in brief: as §1

NCI-H3122 = test system: NCI-H3122
Method in brief: as §1

NCI-H1793 = test system: NCI-H1793
Method in brief: as §1

NCI-H2087 = test system: NCI-H2087
Method in brief: as §1

NCI-H1395 = test system: NCI-H1395
Method in brief: as §1

## O=c1cc(-c2cccc3c2Sc2ccccc2S3)oc(N2CCOCC2)c1 + CC(=O)Nc1cccc(-n2c(=O)n(C3CC3)c(=O)c3c(Nc4ccc(I)cc4F)n(C)c(=O)c(C)c32)c1 [Trametinib] (partner 0.02 µM)
NCI-H2405; first compound 0.08 µM
  relative viability: 0.589
NCI-H2405; first compound 0.253 µM
  relative viability: 0.673
NCI-H2405; first compound 0.8 µM
  relative viability: 0.599
NCI-H2405; first compound 2.53 µM
  relative viability: 0.534
NCI-H2405; first compound 8 µM
  relative viability: 0.577
LXF-289; first compound 0.08 µM
  relative viability: 0.657
LXF-289; first compound 0.253 µM
  relative viability: 0.716
LXF-289; first compound 0.8 µM
  relative viability: 0.73
LXF-289; first compound 2.53 µM
  relative viability: 0.651
LXF-289; first compound 8 µM
  relative viability: 0.692
NCI-H1650; first compound 0.08 µM
  relative viability: 0.516
NCI-H1650; first compound 0.253 µM
  relative viability: 0.648
NCI-H1650; first compound 0.8 µM
  relative viability: 0.503
NCI-H1650; first compound 2.53 µM
  relative viability: 0.497
NCI-H1650; first compound 8 µM
  relative viability: 0.622
CAL-12T; first compound 0.08 µM
  relative viability: 0.297
CAL-12T; first compound 0.253 µM
  relative viability: 0.333
CAL-12T; first compound 0.8 µM
  relative viability: 0.305
CAL-12T; first compound 2.53 µM
  relative viability: 0.263
CAL-12T; first compound 8 µM
  relative viability: 0.246
SK-LU-1; first compound 0.08 µM
  relative viability: 0.422
SK-LU-1; first compound 0.253 µM
  relative viability: 0.512
SK-LU-1; first compound 0.8 µM
  relative viability: 0.582
SK-LU-1; first compound 2.53 µM
  relative viability: 0.414
SK-LU-1; first compound 8 µM
  relative viability: 0.415
NCI-H647; first compound 0.08 µM
  relative viability: 0.452
NCI-H647; first compound 0.253 µM
  relative viability: 0.543
NCI-H647; first compound 0.8 µM
  relative viability: 0.405
NCI-H647; first compound 2.53 µM
  relative viability: 0.376
NCI-H647; first compound 8 µM
  relative viability: 0.418
NCI-H322M; first compound 0.08 µM
  relative viability: 0.52
NCI-H322M; first compound 0.253 µM
  relative viability: 0.558
NCI-H322M; first compound 0.8 µM
  relative viability: 0.591
NCI-H322M; first compound 2.53 µM
  relative viability: 0.443
NCI-H322M; first compound 8 µM
  relative viability: 0.529
NCI-H2228; first compound 0.08 µM
  relative viability: 0.554
NCI-H2228; first compound 0.253 µM
  relative viability: 0.72
NCI-H2228; first compound 0.8 µM
  relative viability: 0.582
NCI-H2228; first compound 2.53 µM
  relative viability: 0.416
NCI-H2228; first compound 8 µM
  relative viability: 0.447
NCI-H1437; first compound 0.08 µM
  relative viability: 0.47
NCI-H1437; first compound 0.253 µM
  relative viability: 0.64
NCI-H1437; first compound 0.8 µM
  relative viability: 0.483
NCI-H1437; first compound 2.53 µM
  relative viability: 0.395
NCI-H1437; first compound 8 µM
  relative viability: 0.412
NCI-H1944; first compound 0.08 µM
  relative viability: 0.365
NCI-H1944; first compound 0.253 µM
  relative viability: 0.414
NCI-H1944; first compound 0.8 µM
  relative viability: 0.396
NCI-H1944; first compound 2.53 µM
  relative viability: 0.428
NCI-H1944; first compound 8 µM
  relative viability: 0.428
NCI-H1792; first compound 0.08 µM
  relative viability: 0.446
NCI-H1792; first compound 0.253 µM
  relative viability: 0.685
NCI-H1792; first compound 0.8 µM
  relative viability: 0.441
NCI-H1792; first compound 2.53 µM
  relative viability: 0.421
NCI-H1792; first compound 8 µM
  relative viability: 0.38
LCLC-103H; first compound 0.08 µM
  relative viability: 0.698
LCLC-103H; first compound 0.253 µM
  relative viability: 0.713
LCLC-103H; first compound 0.8 µM
  relative viability: 0.631
LCLC-103H; first compound 2.53 µM
  relative viability: 0.662
LCLC-103H; first compound 8 µM
  relative viability: 0.623
BEN; first compound 0.08 µM
  relative viability: 0.945
BEN; first compound 0.253 µM
  relative viability: 0.982
BEN; first compound 0.8 µM
  relative viability: 1.1
BEN; first compound 2.53 µM
  relative viability: 0.975
BEN; first compound 8 µM
  relative viability: 1.07
HCC-827; first compound 0.08 µM
  relative viability: 0.508
HCC-827; first compound 0.253 µM
  relative viability: 0.563
HCC-827; first compound 0.8 µM
  relative viability: 0.537
HCC-827; first compound 2.53 µM
  relative viability: 0.427
HCC-827; first compound 8 µM
  relative viability: 0.544
LCLC-97TM1; first compound 0.08 µM
  relative viability: 0.204
LCLC-97TM1; first compound 0.253 µM
  relative viability: 0.196
LCLC-97TM1; first compound 0.8 µM
  relative viability: 0.175
LCLC-97TM1; first compound 2.53 µM
  relative viability: 0.186
LCLC-97TM1; first compound 8 µM
  relative viability: 0.181
RERF-LC-KJ; first compound 0.08 µM
  relative viability: 0.79
RERF-LC-KJ; first compound 0.253 µM
  relative viability: 0.856
RERF-LC-KJ; first compound 0.8 µM
  relative viability: 0.89
RERF-LC-KJ; first compound 2.53 µM
  relative viability: 0.895
RERF-LC-KJ; first compound 8 µM
  relative viability: 0.784
201T; first compound 0.08 µM
  relative viability: 0.722
201T; first compound 0.253 µM
  relative viability: 0.735
201T; first compound 0.8 µM
  relative viability: 0.727
201T; first compound 2.53 µM
  relative viability: 0.673
201T; first compound 8 µM
  relative viability: 0.686
NCI-H727; first compound 0.08 µM
  relative viability: 0.367
NCI-H727; first compound 0.253 µM
  relative viability: 0.37
NCI-H727; first compound 2.53 µM
  relative viability: 0.311
NCI-H727; first compound 8 µM
  relative viability: 0.389
NCI-H3122; first compound 0.08 µM
  relative viability: 0.259
NCI-H3122; first compound 0.253 µM
  relative viability: 0.299
NCI-H3122; first compound 0.8 µM
  relative viability: 0.314
NCI-H3122; first compound 2.53 µM
  relative viability: 0.193
NCI-H3122; first compound 8 µM
  relative viability: 0.292
NCI-H1793; first compound 0.08 µM
  relative viability: 0.262
NCI-H1793; first compound 0.253 µM
  relative viability: 0.458
NCI-H1793; first compound 0.8 µM
  relative viability: 0.448
NCI-H1793; first compound 2.53 µM
  relative viability: 0.376
NCI-H1793; first compound 8 µM
  relative viability: 0.346
NCI-H2087; first compound 0.08 µM
  relative viability: 0.143
NCI-H2087; first compound 0.253 µM
  relative viability: 0.212
NCI-H2087; first compound 0.8 µM
  relative viability: 0.172
NCI-H2087; first compound 2.53 µM
  relative viability: 0.172
NCI-H2087; first compound 8 µM
  relative viability: 0.179
NCI-H1395; first compound 0.08 µM
  relative viability: 0.883
NCI-H1395; first compound 0.253 µM
  relative viability: 1.05
NCI-H1395; first compound 0.8 µM
  relative viability: 1.14
NCI-H1395; first compound 2.53 µM
  relative viability: 0.964
NCI-H1395; first compound 8 µM
  relative viability: 1.06
